Results published in patent US11602570B2, “Compositions and systems for renal function determination” (MediBeacon Inc., priority 2017, dated 2023).

Assays:
[1] = Clinical study: plasma pharmacokinetics of MB-102 given intravenously to human patients; format: in vivo
Experimental: (§1) In a clinical study, 60 human patients were administered MB-102 ((2R,2′R)-2,2′-((3,6-diaminopyrazine-2,5-dicarbonyl)bis(azanediyl))bis(3-hydroxypropanoic acid)) prepared in Example 12) intravenously. Blood and urine were collected in addition to the methods and techniques disclosed herein. Standard pharmacokinetic data was collected and comparison was made between the methods and techniques disclosed herein to Omnipaque® (iohexol), a known contrast agent used for GFR determination.
Shown in FIGS. 3A to 3D are data collected from the 60 human patients tested with MB-102. Plasma pharmacokinetic data was collected and analyzed using methods known in the art and compared to the data measured using the methods and techniques disclosed herein.
FIGS. 3A to 3D illustrate a two compartment pharmacokinetic model for the elimination of MB-102. The model is consistent for patients regardless of their GFR values. FIG. 3A is for patients having normal kidney function having a measured GFR (mGFR) of 120 mL/min. FIG. 3B is for patients having a mGFR of 81 mL/min. FIG. 3C is for patients having a mGFR of 28 mL/min. FIG. 3D is for patients having a mGFR of 25 mL/min. The first compartment in the two compartment model is the vascular to tissue equilibrium while the second compartment illustrates renal excretion only. On average, the time for equilibration is about one hour, and is subject dependent.
Shown in FIG. 6 is the plasma concentration half-life of MB-102 for patients having either normal kidney function, stage 1 renal impairment, stage 2 renal impairment, stage 3 renal impairment, or stage 4 renal impairment.

[2] = Clinical study: 12 hour urine collection, amount recovered and degree of secondary metabolism; format: in vivo, human
Experimental: as §1
As part of the clinical 1 study for MB-102, urine was collected from patients for 12 hours to determine the amount recovered and degree of secondary metabolism. […] For patients having normal, stage 1 and stage 2 renal function, 12 hour collection time was sufficient for greater than 99% recovery of MB-102. In view of the pharmacokinetic data and the plasma half-life determination, less than complete collection is readily understood for patients having more serious renal function impairment.

[3] = Stability testing of MB-102, HPLC evaluation; format: physicochemical; settings: 25° C. and 60% relative humidity
Experimental: Samples of MB-102 were prepared and stored at 25° C. and 60% relative humidity for 24 months. HPLC evaluation of each sample was performed at various time points to assess the stability of the samples.

Which results are given for `Nc1nc(C(=O)N[C@H](CO)C(=O)O)c(N)nc1C(=O)N[C@H](CO)C(=O)O` [MB-102, (2R,2′R)-2,2′-((3,6-diaminopyrazine-2,5-dicarbonyl)bis(azanediyl))bis(3-hydroxypropanoic acid)]?
time for equilibration (vascular to tissue equilibrium) ([1]; human patients, intravenous, on average, subject dependent): about one; average plasma half-life ([1]; normal renal function group): two; plasma half-life ([1]; stage 3 renal impairment): 4 h; MB-102 recovered from urine ([2]; patients having a mGFR value below 60, 12 hours, likewise unmetabolized): a lower percentage was recovered; MB-102 recovered unmetabolized from urine ([2]; patients having an eGFR greater than 60, after 12 hours): greater than 99%; Purity (HPLC) ([3]; 0 months): >99%; Purity (HPLC) ([3]; 6 months): >99%; Purity (HPLC) ([3]; 12 months): 98.9%; Purity (HPLC) ([3]; 18 months): 98.3%; Purity (HPLC) ([3]; 24 months): 97.8%
